Assay results: patent publication US10617693B2, “Methods of treating and/or preventing actinic keratosis” (Athenex, Inc., priority 2017, dated 2020)

System: subjects with AK on the face or scalp
Assay: Phase 2a study KX01-AK-002: local skin reactions (grade 0 not present to 4 worst) and adverse events, 0.5 mg KX-01 on 25 cm^2
Type: in vivo, human
Excerpt: An ongoing Phase 2a, open-label, multicenter, activity and safety study of KX-01 administered topically in subjects with AK on the face or scalp is described herein. […] Secondary objectives are to assess the activity of KX-01 administered topically during Days 1-57 based on reduction of AK lesion counts from baseline, assess the safety and tolerability and pharmacokinetics, and contrast the dose regimens (5-day treatment with 3-day treatment) in terms of activity and safety in subjects with AK on the face or scalp. This uncontrolled, nonrandomized trial is being conducted at 16 investigational sites in the United States. Enrollment is sequential for 2 cohorts of approximately 80 subjects each. Enrollment is closed for Cohort 1 and ongoing for Cohort 2. The two treatment cohorts are summarized below: • Cohort 1: 0.5 mg KX-01 administered topically to a contiguous treatment area of 25 cm^2 with 4-8 clinically typical AK lesions for 5 consecutive days • Cohort 2: 0.5 mg KX-01 administered topically to a contiguous treatment area of 25 cm^2 with 4-8 clinically typical AK lesions for 3 consecutive days
0.5 mg KX-01 is administered topically to an area of 25 cm^2 on the face or scalp by site staff on treatment days. […] AK lesion counts are recorded at baseline, days 8, 15, 29, and 57. […] Standardized photography of treatment area is performed at baseline, day 8 and day 57. Plasma samples are being collected at preplanned time points on days 1 and 5 for Cohort 1, and on days 1 and 3 for Cohort 2.
Absence or presence of hyperpigmentation, hypopigmentation and scarring are also assessed. Application site reactions not classified as LSRs are reported as AEs. […] LSRs and AEs are reported separately. All LSRs, pigmentation, and scarring in the treatment area will be followed to resolution or stabilization.
The range of possible composite scores is 0-24.
The Phase 2a trial described in Example 2a was completed with 84 eligible subjects enrolled in each of two cohorts: one cohort was subjected to the treatment for 5 consecutive days, and the other cohort was subjected to the treatment for 3 consecutive days. The results are described below and in FIG. 5.

[1] = Cohort 1 (5-day), 67 subjects with day 57 visit

O=C(Cc1ccc(-c2ccc(OCCN3CCOCC3)cc2)cn1)NCc1ccccc1 [KX-01]
44/67: Erythema grade 0, n/N subjects (Day 2, Cohort 1 (5-day))
5/67: Crusting grade 1, n/N subjects (Day 1, Cohort 1 (5-day)) | Flaking/Scaling grade 2, n/N subjects (Day 3, Cohort 1 (5-day))
11/67: Erythema grade 1, n/N subjects (Day 1, Cohort 1 (5-day))
51/67: Flaking/Scaling grade 0, n/N subjects (Day 2, Cohort 1 (5-day))
2/67: Crusting grade 1, n/N subjects (Day 2, Cohort 1 (5-day)) | Flaking/Scaling grade 3, n/N subjects (Day 3, Cohort 1 (5-day))
24/67: Erythema grade 1, n/N subjects (Day 3, Cohort 1 (5-day))
56/67: Erythema grade 0, n/N subjects (Day 1, Cohort 1 (5-day))
20/67: Erythema grade 1, n/N subjects (Day 2, Cohort 1 (5-day))
7: Subjects with no LSR in the treatment area throughout the study [1]
46/67: Flaking/Scaling grade 0, n/N subjects (Day 3, Cohort 1 (5-day))
0: Crusting grade 2, n/N subjects (Day 1, Cohort 1 (5-day)) | Crusting grade 3, n/N subjects (Day 1, Cohort 1 (5-day)) | Crusting grade 4, n/N subjects (Day 1, Cohort 1 (5-day)) | Erosion/Ulceration grade 1, n/N subjects (Day 1, Cohort 1 (5-day)) | Erosion/Ulceration grade 2, n/N subjects (Day 1, Cohort 1 (5-day)) | Erosion/Ulceration grade 3, n/N subjects (Day 1, Cohort 1 (5-day)) | Erosion/Ulceration grade 4, n/N subjects (Day 1, Cohort 1 (5-day)) | Erythema grade 2, n/N subjects (Day 1, Cohort 1 (5-day)) | Erythema grade 3, n/N subjects (Day 1, Cohort 1 (5-day)) | Erythema grade 4, n/N subjects (Day 1, Cohort 1 (5-day)) | Flaking/Scaling grade 2, n/N subjects (Day 1, Cohort 1 (5-day)) | Flaking/Scaling grade 3, n/N subjects (Day 1, Cohort 1 (5-day)) | Flaking/Scaling grade 4, n/N subjects (Day 1, Cohort 1 (5-day)) | Swelling grade 1, n/N subjects (Day 1, Cohort 1 (5-day)) | Swelling grade 2, n/N subjects (Day 1, Cohort 1 (5-day)) | Swelling grade 3, n/N subjects (Day 1, Cohort 1 (5-day)) | Swelling grade 4, n/N subjects (Day 1, Cohort 1 (5-day)) | Vesiculation/Pustulation grade 1, n/N subjects (Day 1, Cohort 1 (5-day)) | Vesiculation/Pustulation grade 2, n/N subjects (Day 1, Cohort 1 (5-day)) | Vesiculation/Pustulation grade 3, n/N subjects (Day 1, Cohort 1 (5-day)) | Vesiculation/Pustulation grade 4, n/N subjects (Day 1, Cohort 1 (5-day)) | Crusting grade 3, n/N subjects (Day 2, Cohort 1 (5-day)) | Crusting grade 4, n/N subjects (Day 2, Cohort 1 (5-day)) | Erosion/Ulceration grade 1, n/N subjects (Day 2, Cohort 1 (5-day)) | Erosion/Ulceration grade 2, n/N subjects (Day 2, Cohort 1 (5-day)) | Erosion/Ulceration grade 3, n/N subjects (Day 2, Cohort 1 (5-day)) | Erosion/Ulceration grade 4, n/N subjects (Day 2, Cohort 1 (5-day)) | Erythema grade 3, n/N subjects (Day 2, Cohort 1 (5-day)) | Erythema grade 4, n/N subjects (Day 2, Cohort 1 (5-day)) | Flaking/Scaling grade 3, n/N subjects (Day 2, Cohort 1 (5-day)) | Flaking/Scaling grade 4, n/N subjects (Day 2, Cohort 1 (5-day)) | Swelling grade 1, n/N subjects (Day 2, Cohort 1 (5-day)) | Swelling grade 2, n/N subjects (Day 2, Cohort 1 (5-day)) | Swelling grade 3, n/N subjects (Day 2, Cohort 1 (5-day)) | Swelling grade 4, n/N subjects (Day 2, Cohort 1 (5-day)) | Vesiculation/Pustulation grade 1, n/N subjects (Day 2, Cohort 1 (5-day)) | Vesiculation/Pustulation grade 2, n/N subjects (Day 2, Cohort 1 (5-day)) | Vesiculation/Pustulation grade 3, n/N subjects (Day 2, Cohort 1 (5-day)) | Vesiculation/Pustulation grade 4, n/N subjects (Day 2, Cohort 1 (5-day)) | Crusting grade 3, n/N subjects (Day 3, Cohort 1 (5-day)) | Crusting grade 4, n/N subjects (Day 3, Cohort 1 (5-day)) | Erosion/Ulceration grade 2, n/N subjects (Day 3, Cohort 1 (5-day)) | Erosion/Ulceration grade 3, n/N subjects (Day 3, Cohort 1 (5-day)) | Erosion/Ulceration grade 4, n/N subjects (Day 3, Cohort 1 (5-day)) | Erythema grade 4, n/N subjects (Day 3, Cohort 1 (5-day)) | Flaking/Scaling grade 4, n/N subjects (Day 3, Cohort 1 (5-day)) | Swelling grade 1, n/N subjects (Day 3, Cohort 1 (5-day)) | Swelling grade 2, n/N subjects (Day 3, Cohort 1 (5-day)) | Swelling grade 3, n/N subjects (Day 3, Cohort 1 (5-day)) | Swelling grade 4, n/N subjects (Day 3, Cohort 1 (5-day))
67/67: Erosion/Ulceration grade 0, n/N subjects (Day 1, Cohort 1 (5-day)) | Swelling grade 0, n/N subjects (Day 1, Cohort 1 (5-day)) | Vesiculation/Pustulation grade 0, n/N subjects (Day 1, Cohort 1 (5-day)) | Erosion/Ulceration grade 0, n/N subjects (Day 2, Cohort 1 (5-day)) | Swelling grade 0, n/N subjects (Day 2, Cohort 1 (5-day)) | Vesiculation/Pustulation grade 0, n/N subjects (Day 2, Cohort 1 (5-day)) | Swelling grade 0, n/N subjects (Day 3, Cohort 1 (5-day))
12/67: Flaking/Scaling grade 1, n/N subjects (Day 1, Cohort 1 (5-day))
62/67: Crusting grade 0, n/N subjects (Day 1, Cohort 1 (5-day))
63/67: Crusting grade 0, n/N subjects (Day 3, Cohort 1 (5-day))
3: Number of SAEs (Cohort 1 (5-day), in 2 subjects, none considered related to study drug)
Seven: Subjects reporting TEAEs considered related to KX-01 (Cohort 1 (5-day), N=82)
1/67: Crusting grade 2, n/N subjects (Day 2, Cohort 1 (5-day)) | Flaking/Scaling grade 2, n/N subjects (Day 2, Cohort 1 (5-day)) | Crusting grade 2, n/N subjects (Day 3, Cohort 1 (5-day)) | Erosion/Ulceration grade 1, n/N subjects (Day 3, Cohort 1 (5-day)) | Erythema grade 3, n/N subjects (Day 3, Cohort 1 (5-day))
8: Subjects whose LSRs had not returned to baseline at day 57 (Cohort 1 (5-day), of 60 subjects with LSRs)
55/67: Flaking/Scaling grade 0, n/N subjects (Day 1, Cohort 1 (5-day))
15/67: Flaking/Scaling grade 1, n/N subjects (Day 2, Cohort 1 (5-day))
3/67: Erythema grade 2, n/N subjects (Day 2, Cohort 1 (5-day)) | Crusting grade 1, n/N subjects (Day 3, Cohort 1 (5-day))
32/67: Erythema grade 0, n/N subjects (Day 3, Cohort 1 (5-day))
Three: Subjects with vesiculation/pustulation [1]
6: Cases of application site reaction (Cohort 1 (5-day), N=82, mild tenderness, stinging, pruritus)
66/67: Erosion/Ulceration grade 0, n/N subjects (Day 3, Cohort 1 (5-day))
12: Number of TEAEs considered related to KX-01 (Cohort 1 (5-day), N=82)
10/67: Erythema grade 2, n/N subjects (Day 3, Cohort 1 (5-day))
64/67: Crusting grade 0, n/N subjects (Day 2, Cohort 1 (5-day))
14/67: Flaking/Scaling grade 1, n/N subjects (Day 3, Cohort 1 (5-day))
54: Total number of TEAEs (Cohort 1 (5-day), N=82)
